Reference: patent publication US6221676A, “DNA encoding human leukotriene C4 synthase, polypeptides and uses therefor” (Brigham and Women's Hospital, priority 1997, dated 2001)

Legend:
[1] = biological target: T1, LTC4 synthase (Homo sapiens, UniProt Q16873); assay: Inhibition of LTC4 synthase activity (conversion of LTA4-ME to LTC4-ME) in lysates of transfected COS-7 cells; format: biochemical
T1 construct: expressed in transfected cells; host or cells: COS-7 (lysate of transfectants; cDNA from a KG-1 library in pcDNA3)
T1 sequence (Q16873 1-150): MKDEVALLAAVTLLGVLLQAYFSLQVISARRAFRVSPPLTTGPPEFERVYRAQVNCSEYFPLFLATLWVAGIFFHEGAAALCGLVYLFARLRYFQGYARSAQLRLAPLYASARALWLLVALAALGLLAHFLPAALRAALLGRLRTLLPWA
Protocol: HPLC was carried out with a model 126 dual pump system and model 167 scanning UV detector (Beckman Instruments) controlled by an IBM PS2/50 computer using Beckman System Gold software. Samples were applied to a 5-μm 4.6×250-mm C18 Ultrasphere reverse phase column (Beckman Instruments) equilibrated with a solvent of methanol/acetonitrile/water/acetic acid (10:15:100:0.2, v/v), pH 6.0 (solvent A). After injection of the sample, the column was eluted at a flow rate of 1 ml/min with a programmed concave gradient (System Gold curve 6) to 30% solvent A and 70% pure methanol (solvent B) over 0.2 min. After 2.8 min more, solvent B was increased linearly to 90% over 2 min and was maintained at this level for an additional 10 min. UV absorbance at 280 nm and the UV spectra were recorded simultaneously. The retention times for PGB2 and LTC4 -ME were 8.5 and 10.1 min, respectively. LTC4 -ME was quantitated by calculating the ratio of the peak area to the area of the internal standard PGB2.
Dose-Response Assay using MK886
Cell lysates of the COS-7 cell transfectant containing SEQ ID NO.: 1 were incubated with 20 micromolar LTA4 -ME, 20 mM GSH, 5 mM MgCl2 in HEPES buffer (pH 7.6), in the presence of 0-10 micromolar MK-886 for 10 minutes at room temperature. Reactions were stopped by addition of 2 volumes of methanol containing 200 ng PGB2. Samples were analyzed by RP-HPLC.
Lysates from transfected COS cells were analysed for LTC4, the product of conjugating reduced glutathione with 5,6-oxido-7,9-E-11,14-Z-eicosatetraenoic acid. […] At 10 μM, MK-886 inhibits more than 90% of the enzyme activity.

[2] = Conjugation of GSH to 1-chloro-2,4-dintrobenzene by purified LTC4 synthase fraction; format: biochemical; conditions: fraction purified from native KG-1 cells
Description: Detergent-solubilize LTC4 synthase from 6×10^10 native KG-1 cells (using 0.4% deoxycholate, 0.4% Triton X-102, 10% glycerol) was purified by S-hexylglutathione-agarose chromatography using procedures adapted from Penrose et al., Proc. Nat. Acad. Sci., USA, 89:, above, followed by LTC2 affinity chromatography. Active fractions purified from the S-hexylglutathione-agarose column were combined, concentrated (Amicon, Danvers, Mass.) and then loaded onto an LTC2 affinity column equilibrated with buffer A and 0.1% Triton X-102. The column was washed with the same buffer and the enzyme was eluted with buffer A, containing 0.1% Triton X-102, 0.5 M NaCl and 5 mM reduced glutathione.
The LTC4 synthase activity contained a single 18-kDa protein by sodium dodecyl sulfate-polyacrylamide gel electrophoresis (NaDodSO4 -PAGE) with silver staining. […] A sample of the purified protein was concentrated and added to an equal volume of reducing buffer, and the mixture was boiled for 5 min. The reduced protein in this solution was bound to a polyvinylidene membrane by incubation overnight at 4° C. The bound protein was analyzed for N-terminal amino acid sequence by automated Edman degradation or was digested in situ with trypsin. Fernandez et al., Anal. Biochem., 201: 255-264 (1992). […]

C[C@H](C#Cc1ccc(Oc2ccc(F)cc2)o1)N(O)C(N)=O [A79175]
effect on LTC4 synthase activity ([1]; at a concentration of 10 μM, COS cell lysates): did not affect LTC4 synthase activity

CC(C)c1ccc2c(c1)c(SC(C)(C)C)c(CC(C)(C)C(=O)O)n2Cc1ccc(Cl)cc1 [MK-886]
IC50 ([1]; IC50, inhibition of conversion of LTA4-ME to LTC4-ME, 20 uM LTA4-ME, COS cell lysates, dose-dependent, 10 minutes, room temperature): < 3 µM | IC50 ([1]; ID50, inhibition of LTC4 synthase activity, transfected COS cell lysates, dose-related (Discussion)): ~3 µM | inhibition at 10 µM ([1]; read-out: inhibition of the enzyme activity): > 90%

B1: LTC4 synthase: 150-amino acid residue integral membrane protein with three hydrophobic transmembrane domains (protein, UniProt Q16873 1-150, looked up)
Leukotriene C4 synthase: MKDEVALLAAVTLLGVLLQAYFSLQVISARRAFRVSPPLTTGPPEFERVYRAQVNCSEYFPLFLATLWVAGIFFHEGAAALCGLVYLFARLRYFQGYARSAQLRLAPLYASARALWLLVALAALGLLAHFLPAALRAALLGRLRTLLPWA
conjugation of GSH to 1-chloro-2,4-dintrobenzene [2]: did not conjugate GSH to 1-chloro-2,4-dintrobenzene
